Experimental data from patent publication US20140235542A1, “MODULAR, BIOACTIVE PEPTIDES FOR BINDING NATIVE BONE AND IMPROVING BONE GRAFT OSTEOINDUCTIVITY” (WISCONSIN ALUMNI RESEARCH FOUNDATION, priority 2013, published 2014).
Square brackets hold non-standard residues; d marks the D form. Ends that are not written are not given here. Gla = N[C@@H](CC(C(=O)O)C(=O)O)C(=O)O

Experiments:
[1] = Binding of 5(6)-FAM-conjugated modular peptides to HA-coated PLG films; conditions: 4 hr, 37° C.
Method: Poly (lactide-coglycolide) (PLG) films were prepared via a solvent casting process in which PLG (85:15) pellets were dissolved in chloroform (50 mg/ml), added to a PTFE dish, and dried for 2 days. The films were further dried at 50-55° C. for 4 hr to remove residual solvent and samples were cooled to room temperature. Square films (1 cm^2) were manually cut out of the resulting PLG film sheets. A “bone-like” HA-based material layer was grown on the PLG films using a direct deposition technique by biomimetic mineralization in modified simulated body fluid (mSBF).
To measure the binding efficiency of modular peptides to the HA-coated PLG films and to gain preliminary insight into the properties that influence modular peptide immobilization, 1 cm^2 HA-coated PLG films was first exposed to PBS solutions containing 500 μg (1 mg/ml) of 5(6) FAM-conjugated eBMP-2, eBGu1, eBGu3, eBGa1, or eBGa3 modular peptide solution (See Table 1 for definitions of these abbreviations). The films were incubated in peptide solutions with constant agitation for 4 hr at 37° C., and the amount of free peptide remaining was determined by measuring the fluorescence emission of the solution (excitation: 494 nm; emission 519 nm) using a Synergy HT Multi-Detection Microplate Reader (BioTek, Winooski, Vt.), and comparing this emission to standard samples with known concentrations of 5(6)-FAM. To further characterize surface immobilization of the peptide with the highest binding efficiency—the eBGa3 peptide-1 cm^2 HA-coated films were incubated in various concentrations (50-750 nM) of 5(6)-FAM-conjugated eBGa3 peptide for 4 hr with constant agitation at 37° C. The amount of peptide bound to HA-coated film was again determined by fluorescence analysis, as described above.

hMSCs = test: Alkaline phosphatase (ALP) activity in hMSCs; format: cell-based, human; conditions: peptide bound to HA-coated film, vs untreated substrates
Method: hMSCs (Cambrex, Walkersville, Md., passages 5-6) were cultured in mesenchymal stem cell growth medium (MSCGM: Cambrex) consisting of MSC Basal Medium supplemented with 10% fetal bovine serum, L-glutamine, 100 units/ml penicillin, and 0.1 mg/ml streptomycin and grown using culture methods described elsewhere. […] The effects of soluble peptides included in culture medium were evaluated by adding 50 μg of eBGu3 or eBGa3 peptides to hMSC cultures on TCP in 500 μl of medium with or without osteogenic culture supplements. […]
The biological activity of modular peptides was initially assayed by their ability to enhance ALP activity in hMSCs. […] ALP activity was measured at 405 nm, and calculated as the ratio of p-nitrophenol released to total DNA concentration (nmol/min/ng DNA). To determine the amount of total DNA in each well, the cell nuclei were disrupted by addition of the aforementioned lysis buffer followed by centrifugation, and quantified using the CyQUANT Assay Kit (Molecular Probes, Eugene, Oreg.).

[2] = Binding of rhodamine-labeled peptide to cortical bone; design: species or system sheep
Method: The native bone used were harvested from sheep tibia and bovine sternum. Cortical (compact) bone slices were collected from sheep tibia with periosteum removed, and trabecular (cancellous, spongy) bone cores were drilled out from bovine sternum under sterile conditions.
The peptide binding to native bones was tested in three different experiments. In the first experiment, the cortical bone slices were incubated in modular peptide solution (0.5 mL, PBS) with concentrations of 50, 100, 200 and 300 μg/mL. The incubation was continued in a static condition for a period of 0.5, 1, 2 and 3 hours. For another experiment, the trabecular bone cores were placed in the chamber of bone bioreactor where the peptide solution prepared in DMEM (100 μg/mL, 6.5 mL) was continuously circulated through the chamber for a time period of 2, 4, 6, 8 and 10 hours. In the last experiment, mBMP was bound in a spatially controlled manner by dip-coating, spotting or writing with mBMP solution on native bone tissues. Following each experiment, the bones were rinsed with PBS to remove unbound peptide and their fluorescence images were captured using a Typhoon fluorescence scanner (GE healthcare) or a Nikon Eclipse Ti inverted microscope. To quantify the fluorescence intensity, the images were converted into 8-bit using ImageJ to present the intensity level of each pixel in the range of 0 to 255. The mean pixel intensity of a selected region of interest was considered to be proportional to the amount of peptide bound.
To examine mBMP binding to cortical bone without periosteum (ca. 4 mm×7 mm×1.5 mm) from the shaft of sheep tibia, the bone tissue was incubated in mBMP solution prepared in phosphate buffered saline (PBS). The binding of mBMP was concentration-dependent for each incubation time tested (FIGS. 12 and 13A). The quantity of mBMP binding was proportional to the solution concentration, which was clearly observed through all concentrations at 0.5 hour. However, this dependence was not apparent at higher concentrations at later time points. […] The insignificant dependence on the incubation time is likely attributed to the rapid binding of mBMP to native bone tissue.

## KIPKASSVPTELSAISTLYLAAAAγEPRRγEVAγEL (KIPKASSVPTELSAISTLYLAAAA[Gla]PRR[Gla]VA[Gla]L-NH2; N-terminus assumed; SMILES CC[C@H](C)[C@H](NC(=O)[C@H](C)NC(=O)[C@H](CO)NC(=O)[C@H](CC(C)C)NC(=O)[C@H](CCC(=O)O)NC(=O)[C@@H](NC(=O)[C@@H]1CCCN1C(=O)[C@@H](NC(=O)[C@H](CO)NC(=O)[C@H](CO)NC(=O)[C@H](C)NC(=O)[C@H](CCCCN)NC(=O)[C@@H]1CCCN1C(=O)[C@@H](NC(=O)[C@@H](N)CCCCN)[C@@H](C)CC)C(C)C)[C@@H](C)O)C(=O)N[C@@H](CO)C(=O)N[C@H](C(=O)N[C@@H](CC(C)C)C(=O)N[C@@H](Cc1ccc(O)cc1)C(=O)N[C@@H](CC(C)C)C(=O)N[C@@H](C)C(=O)N[C@@H](C)C(=O)N[C@@H](C)C(=O)N[C@@H](C)C(=O)N[C@@H](CC(C(=O)O)C(=O)O)C(=O)N1CCC[C@H]1C(=O)N[C@@H](CCCNC(=N)N)C(=O)N[C@@H](CCCNC(=N)N)C(=O)N[C@@H](CC(C(=O)O)C(=O)O)C(=O)N[C@H](C(=O)N[C@@H](C)C(=O)N[C@@H](CC(C(=O)O)C(=O)O)C(=O)N[C@@H](CC(C)C)C(N)=O)C(C)C)[C@@H](C)O) [eBGa3]
[1]; 500 μg (1 mg/ml) 5(6)-FAM-conjugated peptide in PBS, constant agitation
  binding efficiency on the HA-coated PLG films: 55.9±2.2%
[1]; HA-coated film
  peptide amount at which bound amount reached saturation: ~300 µg
  peptide concentration at which bound amount reached saturation: approximately 150 μM
hMSCs
  effect of immobilized peptide on ALP activity: significantly enhanced
[2]; 50-300 μg/mL in PBS, 0.5-3 hours
  dependence of binding to cortical bone on concentration and incubation time: concentration-dependent
[2]; bone piece dip-coated in peptide solution
  binding to bone surface after dip-coating: significant amount of mBMP was found to bind
[2]; rhodamine-labeled peptide, cortical bone
  fluorescence intensity of treated bone compared with rhodamine-treated group: higher fluorescence intensity
